Results published in patent US20060252800A1, “Anti-leishmania agent” (priority 2003, published 2006).

Experiments:
Leishmania (L. major) = test: Leishmania protozoa proliferation inhibition assay; format: cell-based; settings: for OD level (number of viable Leishmania protozoa): Table 2, 48 hours at 27° C., absorbance 450 nm minus 630 nm

## CCCC[n+]1ccccc1/C=c1\s/c(=C2/Sc3ccccc3N2C)c(=O)n1CC.[I-] [I (c), 1-butyl-2-[3-ethyl-{5-(3-methyl-2(3H)-benzothiazolylidene)-4-oxo-2-thiazolidinylidene}methyl]pyridinium=iodide]
Leishmania (L. major); sample concentration 0.0001 mg/ml
  OD level (number of viable Leishmania protozoa): 0.365
Leishmania (L. major); sample concentration 0.0007 mg/ml
  OD level (number of viable Leishmania protozoa): 0.360
Leishmania (L. major); sample concentration 0.002 mg/ml
  OD level (number of viable Leishmania protozoa): 0.394
Leishmania (L. major); sample concentration 0.008 mg/ml
  OD level (number of viable Leishmania protozoa): 0.407
Leishmania (L. major); sample concentration 0.025 mg/ml
  OD level (number of viable Leishmania protozoa): 0.317
Leishmania (L. major); sample concentration 0.084 mg/ml
  OD level (number of viable Leishmania protozoa): 0.117
Leishmania (L. major); sample concentration 0.279 mg/ml
  OD level (number of viable Leishmania protozoa): 0.042
Leishmania (L. major); sample concentration 0.93 mg/ml
  OD level (number of viable Leishmania protozoa): 0.029
Leishmania (L. major); sample concentration 3.1 mg/ml
  OD level (number of viable Leishmania protozoa): 0.031
Leishmania (L. major); sample concentration 2E−04 mg/ml
  OD level (number of viable Leishmania protozoa): 0.350
Leishmania (L. major); calculated from the graphs of FIGS. 1 to 4 (concentration vs number of viable leishmania protozoa), read-out: Concentration inhibiting 50% leishmania proliferation
  IC50: 1000 nM
other
  melting point: 237 to 242 °C
